Reference: patent publication US20050250826A1, “Compounds, compositions, processes of making, and methods of use related to inhibiting macrophage migration inhibitory factor” (priority 2004, published 2005)

Experiments:
carageenin-induced edema = conditions: rat paw; compared to parent compound unsubstituted in the para position of the phenyl ring; Curuzu et al. 1991; cited from earlier work
recombinant human MIF = molecular target: T1, recombinant human MIF (Homo sapiens, UniProt P14174); experiment: MIF dopachrome tautomerase assay; format: biochemical; conditions: dose-dependent inhibition
T1 construct: made in house; host or cells: E. coli
T1 sequence (P14174 2-115 limits assumed): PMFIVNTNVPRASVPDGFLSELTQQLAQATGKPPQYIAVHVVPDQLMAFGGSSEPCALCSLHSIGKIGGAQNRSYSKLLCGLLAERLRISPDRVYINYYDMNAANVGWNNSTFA
Description: The compounds of Formula I or II are identified as MIF inhibitors because they inhibit MIF enzymatic activity in vitro. […] This reaction predicts therapeutic MIF inhibitors (see U.S. Pat. No. 6,420,188 and U.S. Pat. No. 6,599,938, the disclosures of which are incorporated herein by reference in their entirety). Inhibition of MIF tautomerase activity is predictive of inhibition of MIF biological activity.
A method for performing an assay for MIF dopachrome tautomerase activity begins with the preparation and oxidation of a DOPA-related substrate precursor, such as L-3,4-dihydroxyphenylalanine methyl ester. […] The absorbance is measured at about 475 nm (or 550 nm for substrate concentrations in excess […]). A test compound may be included in the assay solution such that the effect of the test compound on MIF tautomerase activity (i.e., as an inhibitor) may be measured by noting the change in kinetics of substrate tautomerization compared to control assays performed in the absence of the test inhibitor compound. […]
L-3,4-dihydroxyphenylalanine methyl ester (e.g., Sigma D-1507) is a dopachrome substrate precursor, and is prepared as a 4 mM solution in dd H2O Sodium periodate is prepared as an 8 mM solution in dd H2O. […] Inhibition of MIF tautomerase activity by the test compounds is determined by inhibition of the de-colorization of the assay mixture, often at the 20 sec time point. […]

Structure (SMILES)	anti-inflammatory activity (carageenin-induced edema)	IC50 (recombinant human MIF) [µM]	other results
O=C(O)CC1CC(c2ccc(O)cc2)=NO1 (centres unmarked) [3-(4-hydroxyphenyl)-4,5-dihydro-5-isoxazolineacetic acid]	devoid of anti-inflammatory activity		
COc1ccc(C2=NOC(CC(=O)O)C2)cc1 (centres unmarked) [3-(4-methoxyphenyl)-4,5-dihydro-5-isoxazolineacetic acid]	dramatically reduced		
CCOC(=O)C(C)CC1CC(c2ccc(O)cc2)=NO1 (centres unmarked) [Compound 32]			melting point: 192 to 194 °C
O=C(CC1CC(c2ccc(O)cc2)=NO1)N1CCCC1 (centres unmarked) [Compound 68]		~10	
O=C(CC1CC(c2ccc(O)cc2)=NO1)N1CCOCC1 (centres unmarked) [Compound 69]		~10	
